From ChEMBL document CHEMBL3112450, “Synthesis and in vitro antitumor evaluation of primary amine substituted quinazoline linked benzimidazole” (Bioorg Med Chem Lett, 2014)

Legend:
Format in all cases: functional
[1] = Cytotoxicity against human OVCAR4 cells assessed as cell growth at 10^-7 M after 48 hrs by SRB assay; conditions: OVCAR-4, 48 h, read-out: Activity
MOLT-4 = test: Cytotoxicity against human MOLT4 cells after 48 hrs by SRB assay; conditions: MOLT-4, 48 h
MDA-MB-468 [2] = test: Cytotoxicity against human MDA-MB-468 cells assessed as cell growth at 10^-4 M after 48 hrs by SRB assay; conditions: MDA-MB-468, 48 h, read-out: Activity
RXF 393 [3] = test: Cytotoxicity against human RXF393 cells assessed as cell growth at 10^-4 M after 48 hrs by SRB assay; conditions: RXF 393, 48 h, read-out: Activity
SNB-19 = test: Cytotoxicity against human SNB19 cells assessed as cell growth at 10^-7 M after 48 hrs by SRB assay; conditions: SNB-19, 48 h, read-out: Activity
SW-620 [4] = test: Cytotoxicity against human SW620 cells assessed as cell growth at 10^-7 M after 48 hrs by SRB assay; conditions: SW-620, 48 h, read-out: Activity
HT-29 = test: Cytotoxicity against human HT-29 cells assessed as cell growth at 10^-7 M after 48 hrs by SRB assay; conditions: HT-29, 48 h, read-out: Activity
[5] = Cytotoxicity against human Hs578T cells assessed as cell growth at 10^-8 M after 48 hrs by SRB assay; conditions: Hs-578T, read-out: Activity
[6] = Cytotoxicity against human UO31 cells assessed as cell growth at 10^-8 M after 48 hrs by SRB assay; conditions: UO-31, 48 h, read-out: Activity
A498 [7] = test: Cytotoxicity against human A498 cells assessed as cell growth at 10^-4 M after 48 hrs by SRB assay; conditions: A498, 48 h, read-out: Activity
OVCAR-8 = test: Cytotoxicity against human OVCAR8 cells assessed as cell growth at 10^-4 M after 48 hrs by SRB assay; conditions: OVCAR-8, 48 h, read-out: Activity
UACC-62 [8] = test: Cytotoxicity against human UACC62 cells assessed as cell growth at 10^-4 M after 48 hrs by SRB assay; conditions: UACC-62, 48 h, read-out: Activity
U-251 = test: Cytotoxicity against human U251 cells assessed as cell growth at 10^-4 M after 48 hrs by SRB assay; conditions: U-251, 48 h, read-out: Activity
NCI-H522 = test: Cytotoxicity against human NCI-H522 cells assessed as cell growth at 10^-4 M after 48 hrs by SRB assay; conditions: NCI-H522, 48 h, read-out: Activity
NCI-H23 = test: Cytotoxicity against human NCI-H23 cells assessed as cell growth at 10^-4 M after 48 hrs by SRB assay; conditions: NCI-H23, 48 h, read-out: Activity
SR [9] = test: Cytotoxicity against human SR cells assessed as cell growth at 10^-4 M after 48 hrs by SRB assay; conditions: read-out: Activity
[10] = Cytotoxicity against human NCI-ADR-RES cells assessed as cell growth at 10^-8 M after 48 hrs by SRB assay; conditions: read-out: Activity
SF-295 = test: Cytotoxicity against human SF295 cells assessed as cell growth at 10^-8 M after 48 hrs by SRB assay; conditions: SF-295, 48 h, read-out: Activity
SW-620 [11] = test: Cytotoxicity against human SW620 cells assessed as cell growth at 10^-8 M after 48 hrs by SRB assay; conditions: SW-620, 48 h, read-out: Activity
COLO 205 = test: Cytotoxicity against human COLO205 cells assessed as cell growth at 10^-8 M after 48 hrs by SRB assay; conditions: COLO 205, 48 h, read-out: Activity
HOP-92 = test: Cytotoxicity against human HOP92 cells assessed as cell growth at 10^-8 M after 48 hrs by SRB assay; conditions: HOP-92, 48 h, read-out: Activity
HL-60(TB) = test: Cytotoxicity against human HL-60(TB) cells assessed as cell growth at 10^-8 M after 48 hrs by SRB assay; conditions: HL-60, 48 h, read-out: Activity
RXF 393 [12] = test: Cytotoxicity against human RXF393 cells after 48 hrs by SRB assay; conditions: RXF 393, 48 h
A498 [13] = test: Cytotoxicity against human A498 cells after 48 hrs by SRB assay; conditions: A498, 48 h
MDA-MB-435 [14] = test: Cytotoxicity against human MDA-MB-435 cells after 48 hrs by SRB assay; conditions: MDA-MB-435, 48 h
Malme-3M = test: Cytotoxicity against human MALME-3M cells after 48 hrs by SRB assay
HCT-116 = test: Cytotoxicity against human HCT116 cells after 48 hrs by SRB assay; conditions: HCT-116, 48 h
MDA-MB-468 [15] = test: Cytotoxicity against human MDA-MB-468 cells assessed as cell growth at 10^-6 M after 48 hrs by SRB assay; conditions: MDA-MB-468, 48 h, read-out: Activity
MCF7 = test: Cytotoxicity against human MCF7 cells assessed as cell growth at 10^-6 M after 48 hrs by SRB assay; conditions: MCF7, 48 h, read-out: Activity
PC-3 = test: Cytotoxicity against human PC3 cells assessed as cell growth at 10^-6 M after 48 hrs by SRB assay; conditions: PC-3, 48 h, read-out: Activity
[16] = Cytotoxicity against human OVCAR4 cells assessed as cell growth at 10^-6 M after 48 hrs by SRB assay; conditions: OVCAR-4, 48 h, read-out: Activity
UACC-62 [17] = test: Cytotoxicity against human UACC62 cells assessed as cell growth at 10^-6 M after 48 hrs by SRB assay; conditions: UACC-62, 48 h, read-out: Activity
SK-MEL-28 = test: Cytotoxicity against human SK-MEL-28 cells assessed as cell growth at 10^-6 M after 48 hrs by SRB assay; conditions: SK-MEL-28, 48 h, read-out: Activity
MDA-MB-435 [18] = test: Cytotoxicity against human MDA-MB-435 cells assessed as cell growth at 10^-6 M after 48 hrs by SRB assay; conditions: MDA-MB-435, 48 h, read-out: Activity
M14 = test: Cytotoxicity against human M14 cells assessed as cell growth at 10^-6 M after 48 hrs by SRB assay; conditions: M14, 48 h, read-out: Activity
LOX IMVI = test: Cytotoxicity against human LOXIMVI cells assessed as cell growth at 10^-6 M after 48 hrs by SRB assay; conditions: read-out: Activity
HOP-62 = test: Cytotoxicity against human HOP62 cells assessed as cell growth at 10^-6 M after 48 hrs by SRB assay; conditions: HOP-62, 48 h, read-out: Activity
SR [19] = test: Cytotoxicity against human SR cells assessed as cell growth at 10^-6 M after 48 hrs by SRB assay; conditions: read-out: Activity
[20] = Cytotoxicity against human Hs578T cells assessed as cell growth at 10^-7 M after 48 hrs by SRB assay; conditions: Hs-578T, read-out: Activity

SMILES: C=CCn1c(C)nc2cc(Nc3nc(Nc4ccc5nc(C)n(CC=C)c5c4)c4ccccc4n3)ccc21
- growth at 0.1 µM [1]: 102%
- GI50 (MOLT-4): 0.229 µM
- LC50 (MOLT-4): > 100 µM
- TGI (MOLT-4): 0.629 µM
- growth at 100 µM (MDA-MB-468 [2]): -2%
- growth at 100 µM (RXF 393 [3]): -31%
- growth at 0.1 µM (SNB-19): 88%
- growth at 0.1 µM (SW-620 [4]): 98%
- growth at 0.1 µM (HT-29): 103%
- growth at 0.01 µM [5]: 90%
- growth at 0.01 µM [6]: 85%
- growth at 100 µM (A498 [7]): -85%
- growth at 100 µM (OVCAR-8): 1%
- growth at 100 µM (UACC-62 [8]): -47%
- growth at 100 µM (U-251): -31%
- growth at 100 µM (NCI-H522): -24%
- growth at 100 µM (NCI-H23): -28%
- growth at 100 µM (SR [9]): 2%
- growth at 0.01 µM [10]: 103%
- growth at 0.01 µM (SF-295): 90%
- growth at 0.01 µM (SW-620 [11]): 97%
- growth at 0.01 µM (COLO 205): 101%
- growth at 0.01 µM (HOP-92): 85%
- growth at 0.01 µM (HL-60(TB)): 98%
- GI50 (RXF 393 [12]): 0.373 µM
- TGI (RXF 393 [12]): 1.79 µM
- GI50 (A498 [13]): 1.66 µM
- LC50 (A498 [13]): 5.5 µM
- TGI (A498 [13]): 3.03 µM
- GI50 (MDA-MB-435 [14]): 0.532 µM
- TGI (MDA-MB-435 [14]): 1.82 µM
- GI50 (Malme-3M): 2.27 µM
- TGI (Malme-3M): 4.1 µM
- GI50 (HCT-116): 0.214 µM
- growth at 1 µM (MDA-MB-468 [15]): -28%
- growth at 1 µM (MCF7): -63%
- growth at 1 µM (PC-3): 1%
- growth at 1 µM [16]: -16%
- growth at 1 µM (UACC-62 [17]): 66%
- growth at 1 µM (SK-MEL-28): 104%
- growth at 1 µM (MDA-MB-435 [18]): 32%
- growth at 1 µM (M14): 72%
- growth at 1 µM (LOX IMVI): -85%
- growth at 1 µM (HOP-62): -34%
- growth at 1 µM (SR [19]): -23%
- growth at 0.1 µM [20]: 96%

SMILES: C=CCn1c(C)nc2ccc(Nc3nc(Nc4ccc(F)cc4)nc4ccccc34)cc21
- growth at 0.1 µM [1]: 95%
- GI50 (MOLT-4): 1.77 µM
- LC50 (MOLT-4): > 100 µM
- TGI (MOLT-4): 6.27 µM
- growth at 100 µM (MDA-MB-468 [2]): -37%
- growth at 100 µM (RXF 393 [3]): -56%
- growth at 0.1 µM (SNB-19): 93%
- growth at 0.1 µM (SW-620 [4]): 95%
- growth at 0.1 µM (HT-29): 101%
- growth at 0.01 µM [5]: 92%
- growth at 0.01 µM [6]: 87%
- growth at 100 µM (A498 [7]): -68%
- growth at 100 µM (OVCAR-8): -26%
- growth at 100 µM (UACC-62 [8]): -70%
- growth at 100 µM (U-251): -80%
- growth at 100 µM (NCI-H522): -58%
- growth at 100 µM (NCI-H23): -39%
- growth at 100 µM (SR [9]): -22%
- growth at 0.01 µM [10]: 100%
- growth at 0.01 µM (SF-295): 84%
- growth at 0.01 µM (SW-620 [11]): 99%
- growth at 0.01 µM (COLO 205): 97%
- growth at 0.01 µM (HOP-92): 95%
- growth at 0.01 µM (HL-60(TB)): 94%
- GI50 (RXF 393 [12]): 1.23 µM
- TGI (RXF 393 [12]): 2.57 µM
- CC50 (RXF 393 [12]; read-out: LC50 (the source's name)): 5.38 µM
- GI50 (A498 [13]): 4.36 µM
- LC50 (A498 [13]): 69 µM
- TGI (A498 [13]): 24.1 µM
- GI50 (MDA-MB-435 [14]): 4 µM
- LC50 (concentration killing 50% of cells) (MDA-MB-435 [14]): 92.4 µM
- TGI (MDA-MB-435 [14]): 20.4 µM
- GI50 (Malme-3M): 13.1 µM
- LC50 (Malme-3M): 97.3 µM
- TGI (Malme-3M): 35.7 µM
- GI50 (HCT-116): 2.41 µM
- LC50 (concentration killing 50% of cells) (HCT-116): 39.1 µM
- TGI (HCT-116): 7.67 µM
- growth at 1 µM (MDA-MB-468 [15]): 64%
- growth at 1 µM (MCF7): 73%
- growth at 1 µM (PC-3): 84%
- growth at 1 µM [16]: 85%
- growth at 1 µM (UACC-62 [17]): 91%
- growth at 1 µM (SK-MEL-28): 89%
- growth at 1 µM (MDA-MB-435 [18]): 90%
- growth at 1 µM (M14): 94%
- growth at 1 µM (LOX IMVI): 96%
- growth at 1 µM (HOP-62): 95%
- growth at 1 µM (SR [19]): 92%
- growth at 0.1 µM [20]: 99%
